{
  "source": "PubChem BioAssay AID1963831",
  "about": "(Molecular Pharmacology Branch, DTP, NCI, 2024);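 note: spheroids exposed to compounds for seven days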;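 for viability, T/C: 100% = DMSO vehicle control viability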",
  "test_system": "889142-216-R-J1-PDC complex spheroid viability",
  "assay": "Anticancer human tumor 889142-216-R-J1-PDC patient-derived bladder carcinoma cell line growth inhibition [POLQ]",
  "conditions": "for IC50: curve of first compound; for viability, T/C: stronger effect = lower value",
  "how_it_was_run": "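Complex spheroid viability model combining PDC tumour cells with endothelial (HUVEC) and MSC stromal cells. Novobiocin, ART-558 or RP6685 were tested singly and in combination with standard and investigational anticancer drugs. Each was titrated in half-log steps from near clinical Cmax, or from 10 microM where Cmax was unknown.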",
  "data": [
    {"smiles": "Cn1ncnc1[C@H]1c2n[nH]c(=O)c3cc(F)cc(c23)N[C@@H]1c1ccc(F)cc1", "note": "+ Cc1cccc(N(C)C(=O)C2C(O)CCN2c2nc(C)cc(C(F)(F)F)c2C#N)c1", "values": [
      {"measurement": "IC50", "setting": "second compound 0.0316 µM", "result": "> 0.1", "unit": "µM"},
      {"measurement": "IC50", "setting": "second compound 0.1 µM", "result": "> 0.1", "unit": "µM"},
      {"measurement": "IC50", "setting": "second compound 0.316 µM", "result": "> 0.1", "unit": "µM"},
      {"measurement": "IC50", "setting": "second compound 1 µM", "result": "> 0.1", "unit": "µM"},
      {"measurement": "IC50", "setting": "second compound 3.16 µM", "result": "> 0.1", "unit": "µM"},
      {"measurement": "IC50", "setting": "second compound 10 µM", "result": "> 0.1", "unit": "µM"},
      {"measurement": "viability, T/C", "setting": "second compound 0.0316 µM, first compound 0.000316 µM", "result": 100, "unit": "%"},
      {"measurement": "viability, T/C", "setting": "second compound 0.0316 µM, first compound 0.001 µM", "result": 93.9, "unit": "%"},
      {"measurement": "viability, T/C", "setting": "second compound 0.0316 µM, first compound 0.00316 µM", "result": 132, "unit": "%"},
      {"measurement": "viability, T/C", "setting": "second compound 0.0316 µM, first compound 0.01 µM", "result": 74, "unit": "%"},
      {"measurement": "viability, T/C", "setting": "second compound 0.0316 µM, first compound 0.0316 µM", "result": 85.1, "unit": "%"},
      {"measurement": "viability, T/C", "setting": "second compound 0.0316 µM, first compound 0.1 µM", "result": 67.8, "unit": "%"},
      {"measurement": "viability, T/C", "setting": "second compound 0.1 µM, first compound 0.000316 µM", "result": 128, "unit": "%"},
      {"measurement": "viability, T/C", "setting": "second compound 0.1 µM, first compound 0.001 µM", "result": 101, "unit": "%"},
      {"measurement": "viability, T/C", "setting": "second compound 0.1 µM, first compound 0.00316 µM", "result": 130, "unit": "%"},
      {"measurement": "viability, T/C", "setting": "second compound 0.1 µM, first compound 0.01 µM", "result": 104, "unit": "%"},
      {"measurement": "viability, T/C", "setting": "second compound 0.1 µM, first compound 0.0316 µM", "result": 87.9, "unit": "%"},
      {"measurement": "viability, T/C", "setting": "second compound 0.1 µM, first compound 0.1 µM", "result": 71.3, "unit": "%"},
      {"measurement": "viability, T/C", "setting": "second compound 0.316 µM, first compound 0.000316 µM", "result": 109, "unit": "%"},
      {"measurement": "viability, T/C", "setting": "second compound 0.316 µM, first compound 0.001 µM", "result": 111, "unit": "%"},
      {"measurement": "viability, T/C", "setting": "second compound 0.316 µM, first compound 0.00316 µM", "result": 91.7, "unit": "%"},
      {"measurement": "viability, T/C", "setting": "second compound 0.316 µM, first compound 0.01 µM", "result": 93.1, "unit": "%"},
      {"measurement": "viability, T/C", "setting": "second compound 0.316 µM, first compound 0.0316 µM", "result": 80.4, "unit": "%"},
      {"measurement": "viability, T/C", "setting": "second compound 0.316 µM, first compound 0.1 µM", "result": 65.5, "unit": "%"},
      {"measurement": "viability, T/C", "setting": "second compound 1 µM, first compound 0.000316 µM", "result": 97.5, "unit": "%"},
      {"measurement": "viability, T/C", "setting": "second compound 1 µM, first compound 0.001 µM", "result": 110, "unit": "%"},
      {"measurement": "viability, T/C", "setting": "second compound 1 µM, first compound 0.00316 µM", "result": 92, "unit": "%"},
      {"measurement": "viability, T/C", "setting": "second compound 1 µM, first compound 0.01 µM", "result": 92.9, "unit": "%"},
      {"measurement": "viability, T/C", "setting": "second compound 1 µM, first compound 0.0316 µM", "result": 81.9, "unit": "%"},
      {"measurement": "viability, T/C", "setting": "second compound 1 µM, first compound 0.1 µM", "result": 72.9, "unit": "%"},
      {"measurement": "viability, T/C", "setting": "second compound 3.16 µM, first compound 0.000316 µM", "result": 109, "unit": "%"},
      {"measurement": "viability, T/C", "setting": "second compound 3.16 µM, first compound 0.001 µM", "result": 105, "unit": "%"},
      {"measurement": "viability, T/C", "setting": "second compound 3.16 µM, first compound 0.00316 µM", "result": 82.7, "unit": "%"},
      {"measurement": "viability, T/C", "setting": "second compound 3.16 µM, first compound 0.01 µM", "result": 73.6, "unit": "%"},
      {"measurement": "viability, T/C", "setting": "second compound 3.16 µM, first compound 0.0316 µM", "result": 75.5, "unit": "%"},
      {"measurement": "viability, T/C", "setting": "second compound 3.16 µM, first compound 0.1 µM", "result": 73.4, "unit": "%"},
      {"measurement": "viability, T/C", "setting": "second compound 10 µM, first compound 0.000316 µM", "result": 83.8, "unit": "%"},
      {"measurement": "viability, T/C", "setting": "second compound 10 µM, first compound 0.001 µM", "result": 71.6, "unit": "%"},
      {"measurement": "viability, T/C", "setting": "second compound 10 µM, first compound 0.00316 µM", "result": 69.1, "unit": "%"},
      {"measurement": "viability, T/C", "setting": "second compound 10 µM, first compound 0.01 µM", "result": 77.1, "unit": "%"},
      {"measurement": "viability, T/C", "setting": "second compound 10 µM, first compound 0.0316 µM", "result": 81.5, "unit": "%"},
      {"measurement": "viability, T/C", "setting": "second compound 10 µM, first compound 0.1 µM", "result": 62.5, "unit": "%"}
    ]},
    {"smiles": "CC(=O)O[C@H]1C(=O)[C@@]2(C)[C@H]([C@H](OC(=O)c3ccccc3)[C@]3(O)C[C@H](OC(=O)[C@H](O)[C@@H](NC(=O)c4ccccc4)c4ccccc4)C(C)=C1C3(C)C)[C@]1(OC(C)=O)CO[C@@H]1C[C@@H]2O", "note": "+ Cc1cccc(N(C)C(=O)C2C(O)CCN2c2nc(C)cc(C(F)(F)F)c2C#N)c1", "values": [
      {"measurement": "IC50", "setting": "second compound 0.0316 µM", "result": "> 3", "unit": "µM"},
      {"measurement": "IC50", "setting": "second compound 0.1 µM", "result": 0.344, "unit": "µM"},
      {"measurement": "IC50", "setting": "second compound 0.316 µM", "result": "> 3", "unit": "µM"},
      {"measurement": "IC50", "setting": "second compound 1 µM", "result": "> 3", "unit": "µM"},
      {"measurement": "IC50", "setting": "second compound 3.16 µM", "result": 0.0095, "unit": "µM"},
      {"measurement": "IC50", "setting": "second compound 10 µM", "result": "< 0.00949", "unit": "µM"},
      {"measurement": "viability, T/C", "setting": "second compound 0.0316 µM, first compound 0.00949 µM", "result": 50.8, "unit": "%"},
      {"measurement": "viability, T/C", "setting": "second compound 0.0316 µM, first compound 0.03 µM", "result": 45.5, "unit": "%"},
      {"measurement": "viability, T/C", "setting": "second compound 0.0316 µM, first compound 0.0949 µM", "result": 57.5, "unit": "%"},
      {"measurement": "viability, T/C", "setting": "second compound 0.0316 µM, first compound 0.3 µM", "result": 47.5, "unit": "%"},
      {"measurement": "viability, T/C", "setting": "second compound 0.0316 µM, first compound 0.949 µM", "result": 53.1, "unit": "%"},
      {"measurement": "viability, T/C", "setting": "second compound 0.0316 µM, first compound 3 µM", "result": 57.5, "unit": "%"},
      {"measurement": "viability, T/C", "setting": "second compound 0.1 µM, first compound 0.00949 µM", "result": 51.4, "unit": "%"},
      {"measurement": "viability, T/C", "setting": "second compound 0.1 µM, first compound 0.03 µM", "result": 56.5, "unit": "%"},
      {"measurement": "viability, T/C", "setting": "second compound 0.1 µM, first compound 0.0949 µM", "result": 42.7, "unit": "%"},
      {"measurement": "viability, T/C", "setting": "second compound 0.1 µM, first compound 0.3 µM", "result": 44.4, "unit": "%"},
      {"measurement": "viability, T/C", "setting": "second compound 0.1 µM, first compound 0.949 µM", "result": 59, "unit": "%"},
      {"measurement": "viability, T/C", "setting": "second compound 0.1 µM, first compound 3 µM", "result": 47.3, "unit": "%"},
      {"measurement": "viability, T/C", "setting": "second compound 0.316 µM, first compound 0.00949 µM", "result": 56.7, "unit": "%"},
      {"measurement": "viability, T/C", "setting": "second compound 0.316 µM, first compound 0.03 µM", "result": 50.6, "unit": "%"},
      {"measurement": "viability, T/C", "setting": "second compound 0.316 µM, first compound 0.0949 µM", "result": 46.8, "unit": "%"},
      {"measurement": "viability, T/C", "setting": "second compound 0.316 µM, first compound 0.3 µM", "result": 49.1, "unit": "%"},
      {"measurement": "viability, T/C", "setting": "second compound 0.316 µM, first compound 0.949 µM", "result": 59.4, "unit": "%"},
      {"measurement": "viability, T/C", "setting": "second compound 0.316 µM, first compound 3 µM", "result": 50.3, "unit": "%"},
      {"measurement": "viability, T/C", "setting": "second compound 1 µM, first compound 0.00949 µM", "result": 52, "unit": "%"},
      {"measurement": "viability, T/C", "setting": "second compound 1 µM, first compound 0.03 µM", "result": 54, "unit": "%"},
      {"measurement": "viability, T/C", "setting": "second compound 1 µM, first compound 0.0949 µM", "result": 48.8, "unit": "%"},
      {"measurement": "viability, T/C", "setting": "second compound 1 µM, first compound 0.3 µM", "result": 49.5, "unit": "%"},
      {"measurement": "viability, T/C", "setting": "second compound 1 µM, first compound 0.949 µM", "result": 52.2, "unit": "%"},
      {"measurement": "viability, T/C", "setting": "second compound 1 µM, first compound 3 µM", "result": 53.4, "unit": "%"},
      {"measurement": "viability, T/C", "setting": "second compound 3.16 µM, first compound 0.00949 µM", "result": 49.8, "unit": "%"},
      {"measurement": "viability, T/C", "setting": "second compound 3.16 µM, first compound 0.03 µM", "result": 48.4, "unit": "%"},
      {"measurement": "viability, T/C", "setting": "second compound 3.16 µM, first compound 0.0949 µM", "result": 46.7, "unit": "%"},
      {"measurement": "viability, T/C", "setting": "second compound 3.16 µM, first compound 0.3 µM", "result": 56.9, "unit": "%"},
      {"measurement": "viability, T/C", "setting": "second compound 3.16 µM, first compound 0.949 µM", "result": 48.3, "unit": "%"},
      {"measurement": "viability, T/C", "setting": "second compound 3.16 µM, first compound 3 µM", "result": 46, "unit": "%"},
      {"measurement": "viability, T/C", "setting": "second compound 10 µM, first compound 0.00949 µM", "result": 50.5, "unit": "%"},
      {"measurement": "viability, T/C", "setting": "second compound 10 µM, first compound 0.03 µM", "result": 45.4, "unit": "%"},
      {"measurement": "viability, T/C", "setting": "second compound 10 µM, first compound 0.0949 µM", "result": 46.9, "unit": "%"},
      {"measurement": "viability, T/C", "setting": "second compound 10 µM, first compound 0.3 µM", "result": 48.2, "unit": "%"},
      {"measurement": "viability, T/C", "setting": "second compound 10 µM, first compound 0.949 µM", "result": 44, "unit": "%"},
      {"measurement": "viability, T/C", "setting": "second compound 10 µM, first compound 3 µM", "result": 52.7, "unit": "%"}
    ]}
  ]
}
